This is an account of results in article PMC10424716, “Discovery selective acetylcholinesterase inhibitors to control Tetranychus urticae (Acari: Tetranychidae)” (Journal of Insect Science, 2023).

Like-named read-outs stand apart in the source and are kept apart here.

For this assay, the target named is T1, T. urticae AChE (TuAChE) (Tetranychus cinnabarinus, UniProt M9T420).
T1 construct: gene ace1; methods also mention mite extracts
T1 sequence (M9T420 1-687): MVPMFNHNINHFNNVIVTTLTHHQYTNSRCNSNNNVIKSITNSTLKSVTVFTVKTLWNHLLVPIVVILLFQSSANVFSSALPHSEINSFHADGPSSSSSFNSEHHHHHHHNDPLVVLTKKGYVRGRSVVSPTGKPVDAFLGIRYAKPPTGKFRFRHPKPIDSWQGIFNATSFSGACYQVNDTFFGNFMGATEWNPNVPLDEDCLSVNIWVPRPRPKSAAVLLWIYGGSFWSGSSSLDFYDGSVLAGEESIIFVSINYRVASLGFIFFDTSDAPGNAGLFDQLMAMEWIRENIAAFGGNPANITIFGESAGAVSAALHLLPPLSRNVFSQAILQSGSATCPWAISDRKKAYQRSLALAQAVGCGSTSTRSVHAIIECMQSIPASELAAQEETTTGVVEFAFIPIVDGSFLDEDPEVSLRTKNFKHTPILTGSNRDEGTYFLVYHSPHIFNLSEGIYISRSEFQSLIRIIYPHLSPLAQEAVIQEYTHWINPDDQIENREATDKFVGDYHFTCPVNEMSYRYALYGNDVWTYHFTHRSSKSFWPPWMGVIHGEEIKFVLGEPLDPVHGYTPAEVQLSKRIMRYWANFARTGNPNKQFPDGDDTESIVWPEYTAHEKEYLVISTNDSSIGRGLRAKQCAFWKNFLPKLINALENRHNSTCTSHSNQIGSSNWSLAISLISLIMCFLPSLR
As to the kind of experiment: modified Ellman assay, […] nm. The assay is classed as biochemical. (In general: In Ellman's method for cholinesterases, released thiocholine reacts with DTNB.)

`CNC(=O)Oc1ccc2c(c1)[C@]1(C)CCN(C)[C@@H]1N2C` [eserine] gave an IC50 of 3.81 mM.
On to `O=C(c1ccc2occc2c1)N1CCC(OCc2ccccc2)CC1` [compound 8, 1-(1-benzofuran-5-ylcarbonyl)-4-(benzyloxy) piperidine], for which the IC50 (read-out: IC50(mM) / TuAChE) came to 1.51 mM.
